IC50 data for 34 compounds are collected here from PubChem BioAssay AID624344 (Sanford-Burnham Center for Chemical Genomics, 2012).

Test [1] is described as follows: inhibitors of PAF-induced NFkB signaling in CF airway cells, dose response, cell-based, uHTS hits, panel, cytotoxicity readout (AID 624344). To be noted: CF bronchial epithelial cells, PAF-induced NFkB reporter inhibition; with PAF, mean of runs.
For test [2], the system named is Cytotoxicity. The test is described as above. The conditions noted are these: CF bronchial epithelial cells, mean of runs.

The source made the active and inactive calls. The rule behind the calls is not given here.

What is called IC50 is the concentration at which inhibition is half-maximal.

`CN(C)CCCN(C(=O)CCSc1ccccc1)c1nc2cc3c(cc2s1)OCO3`: the values for the 50% inhibitory concentration (IC50) in test [1] and in test [2] were 9.46 µM and 26.1 µM, respectively.
In the case of `CCCc1nnc(NC(=O)c2nc(S(=O)(=O)Cc3ccc(C)cc3)ncc2Cl)s1`, the IC50 in test [1] was 1.23 µM; in test [2], 3.08 µM.
The corresponding values for `Cc1cccc(N=c2oc3cc(O)ccc3cc2C(N)=O)c1` are 2.77 µM and 45.3 µM.
For `Brc1ccc2ncnc(NCc3ccco3)c2c1`, in that order: 5.67 µM and 72.7 µM (inactive).
Turning to `CCOc1ccc(NCc2cc3c(C(C)(C)C)nn(-c4ccccc4)c3[nH]c2=O)cc1`, the IC50 in test [1] was 7.26 µM; in test [2] it was 27.4 µM.
The corresponding values for `C=C1C(=O)C2=CC1CCC(=O)C1(C)CCC(OC(C)=O)C(C)(C)C1CC2O` (stereo not drawn) are 1.35 µM and 13.3 µM.
The corresponding values for `O=S(=O)(CC(CN1CCCC1)N1CCCC1)c1ccc2ccccc2c1` (stereo not drawn) are 1.46 µM and 2.35 µM.
For `CC(=O)Nc1nc(C)c(-c2csc(Nc3cccc(C(C)=O)c3)n2)s1`, in that order: 0.538 µM and 40.1 µM.
For the compound `COc1ccc2c(c1OC)C(=O)OC2Nc1nc(-c2ccccc2)cs1` (stereo not drawn), the IC50 in test [1] was 0.66 µM; in test [2], 32.7 µM.
For `Cc1ccc2c(c1)C(=O)C(=O)N2Cc1ccc(C(F)(F)F)cc1`, the IC50 entry in test [1] is “inactive”. In test [2], the IC50 was > 79 µM (inactive).
For `CCCCCCc1cc2cc(C(=O)Nc3ccccc3OC)c(=O)oc2cc1O`, in that order: “inactive” and 49.4 µM.
Turning to `Cc1ccc(S(=O)(=O)N2[C@@H](c3ccc(C(C)(C)C)cc3)C(C(=O)O)=CC[C@H]2c2ccc(C(C)C)cc2)cc1`, the values for the 50% inhibitory concentration (IC50) in test [1] and in test [2] were 12.9 µM and 55.7 µM (inactive), respectively.
For `CCS(=O)(=O)c1ncc(Cl)c(C(=O)Nc2ccccc2OC)n1`, the values for the IC50 in test [1] and in test [2] were 1.82 µM and 7.42 µM, respectively.
For `COc1ccc2nc(Nc3nc(CSc4nc5ccccc5[nH]4)cc(=O)[nH]3)nc(C)c2c1`, in that order: 5.97 µM and 44 µM.
Regarding `FC(F)(F)c1nnc2c(Sc3ccccc3)nc3ccccc3n12`, the IC50 is 2.76 µM in test [1] and 3.54 µM in test [2].
For `COc1cccc(-c2ccc3ncnc(NCc4ccc5c(c4)OCO5)c3c2)c1`, in that order: 1.61 µM and 18.1 µM.
For `O=C(CSc1nc(C2CC2)nc2ccccc12)Nc1cccc(O)c1`, in that order: 2.58 µM and 42.8 µM.
Turning to `NS(=O)(=O)c1ccc(CCNc2nn3c(-c4cccc(OC(F)(F)F)c4)cnc3s2)cc1`, the IC50 in test [1] was 3.64 µM; in test [2], 19.7 µM.
The corresponding values for `CCOc1cc2c(cc1O)C(=NO)CC1C2CCC2(C)C(O)CCC12` (stereo not drawn) are 17.5 µM and 31 µM.
The corresponding values for `O=C(Nc1cccc(-c2cnc3ccccc3n2)c1)c1cccc(NC(=O)c2ccco2)c1` are 3.68 µM and 6.82 µM.
For the compound `O=C1Nc2ccccc2/C1=C/c1ccnc2ccccc12`, the results for the IC50 in test [1] and in test [2] were 5.85 µM and 36.3 µM, respectively.
For `Cc1ccc(S(=O)(=O)Nc2cccc3cccnc23)c([N+](=O)[O-])c1`, in that order: 2.84 µM and > 79 µM (inactive).
The corresponding values for `COc1ccccc1-c1cc(NC=O)c2ncc(-c3ccc(F)cc3)n2c1` are 4.08 µM and 46.1 µM.
With `O=C(NCc1cccnc1)/C(=C\c1ccc(-c2cccc(Cl)c2)o1)S(=O)(=O)c1ccccc1`, the IC50 in test [1] is 1.71 µM; in test [2], 5.33 µM.
The corresponding values for `COc1ccc2cc3c(N)nn(C(=O)c4ccc(F)cc4)c3nc2c1` are 1.29 µM and 36.6 µM.
For `CN(c1ncnc(N)c1[N+](=O)[O-])C1CCS(=O)(=O)C1` (stereo not drawn), in that order: 2.79 µM and > 79 µM (inactive).
`CN(C)c1ccc(Nc2ncnc3ccc(Br)cc23)cc1`: the results for the IC50 in test [1] and in test [2] were 1.66 µM and 15.9 µM, respectively.
Consider `COc1ccc(OC)c(Nc2ncnc3ccc(Br)cc23)c1`, for which the IC50 in test [1] is 4.6 µM; in test [2], 13.8 µM.
For the compound `Cc1cc2cc(CCNC(=O)C(=O)c3c[nH]c4ccccc34)c(=O)[nH]c2cc1C`, the IC50 was 5.72 µM in test [1] and 24.3 µM in test [2].
As for `COc1ccc(-n2nc(C(=O)NCC(=O)Nc3cc(OC)c(OC)c(OC)c3)c3ccccc3c2=O)cc1Cl`, the IC50 in test [1] was 1.61 µM; in test [2], 23.1 µM.
The corresponding values for `Cc1c(O)ccc2c(-c3ccccc3)cc(=O)oc12` are 3.98 µM and 70.9 µM (inactive).
For `CCOC(=O)c1[nH]c2c(c1C)C(=O)CC(c1ccco1)C2` (stereo not drawn), in that order: “inactive” and > 79 µM (inactive).
For `COc1ccc(COC(=O)C2=C(C)NC(=O)NC2c2ccc(OC)cc2)cc1` (stereo not drawn), in that order: 6.54 µM and 44.5 µM.
For the compound `O=C(c1nnsc1S(=O)(=O)c1ccc(Cl)cc1)N1CCOCC1`, the IC50 in test [1] was 3.85 µM; in test [2], 9.67 µM.
